In brackets after ≈: the same amount, converted by molar mass. Read-outs that look alike come from different tables or passages of the source.
How the values were obtained:
C. neoformans ATCC 34664 = assay: Antifungal susceptibility, broth dilution MIC (CLSI M27-A2); format: cell-based, Cryptococcus neoformans; conditions: for MIC50: Cryptococcus neoformans, read-out: Activity against organisms (MIC50) Cn01
Method: (§1) The compounds of Formula 1 were tested for antifungal activity against Candida albicans, C. glabrata, C. krusei, C. tropicalis, Cryptococcus neoformans, Aspergillus fumigatus, A. niger and Fusarium proliferatum. In vitro evaluation of antifungal activity was performed by determining the minimum inhibitory concentration (MIC) following standard methods (CLSI: Reference method for broth dilution antifungal susceptibility testing of yeasts; Approved standard, second edition M27-A2, 2002; CLSI: Reference method for broth dilution antifungal susceptibility testing of filamentous fungi; Approved standard M38-A, 2002). Anti-fungal susceptibility testing of these anti-fungal compounds was done by broth dilution method using RPMI 1640 medium with MOPS buffer. Known anti-fungal agent fluconazole was used as positive control. End points were determined after 48 hours visually and by using spectrophotometer wherever necessary. Different dilutions were tried and various sets of experiments performed. The activity parameters are enumerated in Table 4.

C. krusei ATCC 6258 = assay: as above; format: cell-based, Candida krusei; conditions: Pichia kudriavzevii, read-out: Activity against organisms (MIC50) Ck01
Method: as §1

C. tropicalis ATCC 750 = assay: as above; format: cell-based, Candida tropicalis; conditions: for MIC50: Candida tropicalis, read-out: Activity against organisms (MIC50) Ct01
Method: as §1

C. albicans ATCC 24433 = assay: as above; format: cell-based; conditions: Candida albicans, read-out: Activity against organisms (MIC50) Ca01
Method: as §1

C. glabrata ATCC 90030 = assay: as above; format: cell-based, Candida glabrata; conditions: Nakaseomyces glabratus, read-out: Activity against organisms (MIC50) Cg01
Method: as §1

A. niger ATCC 16404 = assay: Antifungal susceptibility, broth dilution MIC (CLSI M38-A); format: cell-based; conditions: Aspergillus niger, read-out: Activity against organisms (MIC50) An01
Method: as §1

[1] = test system: F. proliferatum ATCC 10052; assay: as above; format: cell-based; conditions: Fusarium proliferatum, read-out: Activity against organisms (MIC50) Fp01
Method: as §1

A. fumigatus ATCC 46645 = assay: as above; format: cell-based; conditions: Aspergillus fumigatus, read-out: Activity against organisms (MIC50) Afm01
Method: as §1

[2] = ATCC34664, C. neoformans ATCC 34664, broth dilution, RPMI 1640 with MOPS, 48 hours
[3] = ATCC6258, C. krusei ATCC 6258, broth dilution, RPMI 1640 with MOPS, 48 hours
[4] = ATCC750, C. tropicalis ATCC 750, broth dilution, RPMI 1640 with MOPS, 48 hours
[5] = ATCC24433, C. albicans ATCC 24433, broth dilution, RPMI 1640 with MOPS, 48 hours
[6] = ATCC90030, C. glabrata ATCC 90030, broth dilution, RPMI 1640 with MOPS, 48 hours
[7] = ATCC16404, A. niger ATCC 16404, broth dilution, RPMI 1640 with MOPS, 48 hours
[8] = ATCC10052, F. proliferatum ATCC 10052, broth dilution, RPMI 1640 with MOPS, 48 hours
[9] = ATCC46645, A. fumigatus ATCC 46645, broth dilution, RPMI 1640 with MOPS, 48 hours

SMILES	MIC50 (C. neoformans ATCC 34664; ATCC34664, 48 h)	MIC50 (C. krusei ATCC 6258; ATCC6258, 48 h)	MIC50 (C. tropicalis ATCC 750; ATCC750, 48 h)	MIC50 (C. albicans ATCC 24433; ATCC24433, 48 h)	MIC50 (C. glabrata ATCC 90030; ATCC90030, 48 h)	MIC50 (A. niger ATCC 16404; ATCC16404, 48 h)	MIC50 ([1]; ATCC10052, 48 h)	MIC50 (A. fumigatus ATCC 46645; ATCC46645, 48 h)	MIC50 (C. neoformans ATCC 34664; [2])	MIC50 (C. krusei ATCC 6258; [3])	MIC50 (C. tropicalis ATCC 750; [4])	MIC50 (C. albicans ATCC 24433; [5])	MIC50 (C. glabrata ATCC 90030; [6])	MIC50 (A. niger ATCC 16404; [7])	MIC50 [1, 8]	MIC50 (A. fumigatus ATCC 46645; [9])	antifungal activity against Cryptococcus neoformans (in words) (C. neoformans ATCC 34664; summary statement)	antifungal activity against Candida tropicalis (in words) (C. tropicalis ATCC 750; summary statement)
O=C(/C=C/c1ccc(Cl)cc1)c1ccc(O)cc1 [Compound 9A-4]	> 8 µg/mL	> 8 µg/mL	> 8 µg/mL	> 8 µg/mL	32 µg/mL (≈ 124 µM)	> 8 µg/mL	> 8 µg/mL	> 8 µg/mL	–	–	–	–	–	–	–	–	–	–
O=C(/C=C/c1ccc(O)cc1)c1ccc(O)cc1 [Compound 9A-5]	–	–	–	–	–	–	–	–	32 µg/mL (≈ 133 µM)	> 32 µg/mL	> 32 µg/mL	32 µg/mL (≈ 133 µM)	16 µg/mL (≈ 66.6 µM)	8 µg/mL (≈ 33.3 µM)	> 32 µg/mL	16 µg/mL (≈ 66.6 µM)	–	–
O=C(/C=C/c1cccs1)c1ccc(O)cc1 [Compound 10A-1]	–	–	–	–	–	–	–	–	> 32 µg/mL	> 32 µg/mL	> 32 µg/mL	> 32 µg/mL	> 32 µg/mL	> 32 µg/mL	> 32 µg/mL	> 32 µg/mL	–	–
COc1ccc(C(=O)/C=C/c2cccs2)cc1 [Compound 10A-2]	–	–	–	–	–	–	–	–	> 8 µg/mL	> 8 µg/mL	> 8 µg/mL	> 8 µg/mL	> 8 µg/mL	> 8 µg/mL	> 8 µg/mL	> 8 µg/mL	–	–
CCCN1CCN(c2ccc(C(C)=O)cc2)CC1 [Compound 11A-1]	–	–	–	–	–	–	–	–	> 128 µg/mL	> 128 µg/mL	> 128 µg/mL	> 128 µg/mL	> 128 µg/mL	> 128 µg/mL	> 128 µg/mL	> 128 µg/mL	–	–
CCCCN1CCN(c2ccc(C(C)=O)cc2)CC1 [Compound 11A-2]	–	–	–	–	–	–	–	–	> 64 µg/mL	> 64 µg/mL	> 64 µg/mL	> 64 µg/mL	> 64 µg/mL	> 64 µg/mL	> 64 µg/mL	> 64 µg/mL	–	–
OC(Cn1cncn1)(Cn1cncn1)c1ccc(F)cc1F [Fluconazole, reference compound]	–	–	–	–	–	–	–	–	2 µg/mL (≈ 6.53 µM)	32 µg/mL (≈ 104 µM)	1 µg/mL (≈ 3.27 µM)	0.25 µg/mL (≈ 0.816 µM)	1 µg/mL (≈ 3.27 µM)	> 128 µg/mL	> 128 µg/mL	> 128 µg/mL	weaker antifungal activity	weaker antifungal activity

Source: patent US9540350B2, “1-substituted, 4-(substituted phenoxymethyl)-1,2,3-triazole compounds with antifungal properties and methods for preparation thereof” (FDC LIMITED, priority 2013, dated 2017)
